Measured values taken from PMC10406613, “Endocytic myosin-1 is a force-insensitive, power-generating motor” (The Journal of Cell Biology, 2023).

Tests used:
[1] = molecular target: T1, phosphorylated Myo5 (actoMyo5) (Saccharomyces cerevisiae, UniProt Q04439); assay: stopped-flow light scattering, ADP release from ADP-saturated actoMyo5 mixed with ATP; assay type: binding; parameters: motor domain plus both IQ motifs, truncated at Gly763, C-terminal AviTag-TEV-His9 kept; co-expressed with She4 in S. cerevisiae D1074; phosphorylated at TEDS site S357 by Pak1; Cmd1 light chain in excess; with Calmodulin; Actin, alpha skeletal muscle (rabbit, Oryctolagus cuniculus); conditions: 100 µM ADP preincubated with 200 nM actoMyo5, then 2.5 mM ATP, KMg25 buffer pH 7, 20°C, phosphorylated at S357
Text: stopped-flow light scattering, ADP release from ADP-saturated actoMyo5 mixed with ATP on phosphorylated Myo5 (actoMyo5)

[2] = molecular target: T2, unphosphorylated Myo5 (actoMyo5) (Saccharomyces cerevisiae, UniProt Q04439); assay: as above; assay type: binding; parameters: motor domain plus both IQ motifs, truncated at Gly763, C-terminal AviTag-TEV-His9 kept; co-expressed with She4 in S. cerevisiae D1074; lambda phosphatase-treated (unphosphorylated at TEDS site S357); Cmd1 light chain in excess; with Calmodulin; Actin, alpha skeletal muscle (rabbit, Oryctolagus cuniculus); conditions: ADP dissociation rate constant, 100 µM ADP preincubated with 200 nM actoMyo5, then 2.5 mM ATP, KMg25 buffer pH 7, 20°C
Text: stopped-flow light scattering, ADP release from ADP-saturated actoMyo5 mixed with ATP on unphosphorylated Myo5 (actoMyo5)

[3] = molecular target: T1, phosphorylated Myo5 (actoMyo5); conditions: apparent second-order rate constant of ATP binding to nucleotide-free actoMyo5 (actin-bound); MgATP, KMg25 buffer pH 7, 20°C; phosphorylated at S357
Text: stopped-flow light scattering, ATP-induced dissociation of actoMyo5, linear fit on phosphorylated Myo5 (actoMyo5)

[4] = molecular target: T2, unphosphorylated Myo5 (actoMyo5); assay: biochemical
Text: stopped-flow light scattering, ATP-induced dissociation of actoMyo5, hyperbolic fit on unphosphorylated Myo5 (actoMyo5)

T1 sequence (Q04439 whole entry, looked up, the tested form may be a part): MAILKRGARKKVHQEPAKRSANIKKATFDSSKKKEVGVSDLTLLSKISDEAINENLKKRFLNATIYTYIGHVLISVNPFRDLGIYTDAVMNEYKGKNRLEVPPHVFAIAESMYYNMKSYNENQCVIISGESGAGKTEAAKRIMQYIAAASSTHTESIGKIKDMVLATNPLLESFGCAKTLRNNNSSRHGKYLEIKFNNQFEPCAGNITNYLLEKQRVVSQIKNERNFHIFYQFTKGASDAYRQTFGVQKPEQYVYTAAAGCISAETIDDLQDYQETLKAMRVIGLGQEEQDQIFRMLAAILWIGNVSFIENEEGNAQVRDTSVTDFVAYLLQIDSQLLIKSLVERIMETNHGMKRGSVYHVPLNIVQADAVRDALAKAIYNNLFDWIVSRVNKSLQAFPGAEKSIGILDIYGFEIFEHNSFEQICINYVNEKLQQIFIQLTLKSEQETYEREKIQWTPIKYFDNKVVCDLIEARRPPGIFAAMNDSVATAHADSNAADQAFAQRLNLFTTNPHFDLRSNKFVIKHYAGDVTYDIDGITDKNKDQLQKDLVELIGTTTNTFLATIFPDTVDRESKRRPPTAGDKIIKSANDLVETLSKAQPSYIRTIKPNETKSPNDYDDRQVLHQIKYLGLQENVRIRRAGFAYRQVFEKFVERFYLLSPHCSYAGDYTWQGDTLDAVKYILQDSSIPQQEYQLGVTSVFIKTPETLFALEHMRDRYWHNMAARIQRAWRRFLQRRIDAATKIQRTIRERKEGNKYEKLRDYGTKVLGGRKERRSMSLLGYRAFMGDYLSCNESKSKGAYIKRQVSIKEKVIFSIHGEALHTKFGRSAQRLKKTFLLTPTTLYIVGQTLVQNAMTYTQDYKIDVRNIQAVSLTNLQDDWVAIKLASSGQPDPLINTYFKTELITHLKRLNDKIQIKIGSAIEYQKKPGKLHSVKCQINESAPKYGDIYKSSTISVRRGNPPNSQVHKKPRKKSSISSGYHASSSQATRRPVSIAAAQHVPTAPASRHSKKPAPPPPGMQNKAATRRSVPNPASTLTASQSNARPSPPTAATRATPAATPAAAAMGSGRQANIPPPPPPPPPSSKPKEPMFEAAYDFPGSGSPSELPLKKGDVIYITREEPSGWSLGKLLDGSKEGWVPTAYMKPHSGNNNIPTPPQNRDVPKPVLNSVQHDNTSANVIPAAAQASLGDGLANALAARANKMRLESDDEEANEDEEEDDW
T2 sequence (Q04439 whole entry, looked up, the tested form may be a part): as above

| SMILES | ADP dissociation rate constant [1] | ADP release rate constant [2] | Phosphorylated Myo5 [3] | Kd [4] |
| --- | --- | --- | --- | --- |
| Nc1ncnc2c1ncn2[C@@H]1O[C@H](COP(=O)(O)OP(=O)(O)O)[C@@H](O)[C@H]1O [ADP] | 74 ± 2.0 s⁻¹ | 107 (±5.9) s^−1 | – | – |
| Nc1ncnc2c1ncn2[C@@H]1O[C@H](COP(=O)(O)OP(=O)(O)OP(=O)(O)O)[C@@H](O)[C@H]1O [ATP] | – | – | 0.39 (±0.017) µM^−1 s^−1 | 167 µM |
